What was measured:
Tubulin [1] = target: T1, Tubulin (Bos taurus, UniProt Q6B856+Q862L2+Q862F3); assay: Inhibition of glutamate-dependent tubulin polymerization at 30 degrees C(0.25 mM MgCl2); assay type: functional
L1210 [2] = assay: Compound was tested for the inhibition of murine L1210 leukemia cells growth by 50%; assay type: functional, cell-based; settings: Mus musculus
Tubulin [3] = target: T1, Tubulin; assay: Concentration required to inhibit the extent of glutamate-dependent tubulin polymerization by 50% at 37 degrees C(1.0 mM MgCl2); assay type: functional
HL-60 = assay: Cytotoxicity of compound against HL-60 human leukemia cells; assay type: functional, cell-based
L1210 [4] = assay: Compound was tested for the inhibition of L1210 leukemia cells growth […]; assay type: functional, cell-based; settings: Mus musculus

Row | IC50 (Tubulin [1]) [nM] | IC50 (Tubulin [3]) [nM] | Structure (SMILES) | also measured
1 | 2700 |  | CCOc1cc2c(cc1CCCc1ccc(OC)cc1)OCO2 | 
2 | 3800 |  | CCOc1cc2c(cc1CCc1ccc(OC)cc1)OCO2 | 
3 | 3000 | 11000 | COc1ccc(CCCc2cc(OC)c(OC)c(OC)c2)cc1O | IC50 (L1210 [2]): 400 nM; IC50 (HL-60): 300 nM
4 | 7500 |  | COc1ccc(CCCCc2cc3c(cc2OC)OCO3)cc1 | 
5 | 1800 |  | CCOc1cc2c(cc1C(C)c1ccc(OC)cc1)OCO2 (stereo not given) | 
6 | 4400 | 30000 | COc1ccc(CCCCc2cc(OC)c(OC)c(OC)c2)cc1O | 
7 | 3900 |  | COc1ccc(/C=C/Cc2cc3c(cc2OC)OCO3)cc1 | 
8 | 5400 |  | COc1ccc(Cc2cc3c(cc2OC)OCO3)cc1 | 
9 | 2000 |  | CCOc1cc2c(cc1Cc1ccc(OC)cc1)OCO2 | 
10 | > 40000 | > 40000 | COc1ccc(-c2cc(OC)c(OC)c(OC)c2)cc1O | 
11 | 2300 | 7700 | COc1ccc(Cc2cc(OC)c(OC)c(OC)c2)cc1O | IC50 (L1210 [2]): 200 nM; IC50 (HL-60): 100 nM
12 | 8800 |  | COc1ccc(CCc2cc3c(cc2OC)OCO3)cc1 | 
13 | 1900 |  | CCOc1cc2c(cc1C/C=C/c1ccc(OC)cc1)OCO2 | 
14 | 2500 |  | COc1ccc(C(C)c2cc3c(cc2OC)OCO3)cc1 (stereo not given) | 
15 | > 40000 |  | CCOc1cc2c(cc1/C=C\c1ccc(OC)cc1)OCO2 | 
16 | 3800 |  | COc1ccc(CCCc2cc3c(cc2OC)OCO3)cc1 | 
17 | 1600 | 3500 | COc1ccc(CCc2cc(OC)c(OC)c(OC)c2)cc1O | IC50 (HL-60): 50 nM; IC50 (L1210 [4]): 70 nM
18 | 1200 | 2600 | COc1c(-c2ccc(OC)c(=O)cc2)ccc(C=O)c1C=O | 

— ChEMBL document CHEMBL1125405, “Synthesis of alkoxy-substituted diaryl compounds and correlation of ring separation with inhibition of tubulin polymerization: differential enhancement of inhibitory effects under suboptimal polymerization reaction conditions” (J Med Chem, 1992)
